US20250145642A1, “BICYCLIC HETEROARENES AND METHODS OF THEIR USE” (Kineta, Inc., priority 2021, published 2025)
Read-outs that look alike come from different tables or passages of the source.

Target: full-length human PIKFYVE (N-terminal GST-fusion) (Homo sapiens (Human), UniProt Q9Y2I7, L932S/Q1183K/Q995L/S1033A/S696N/T998S)
Assay: PIKfyve biochemical assay (ADP-Glo Kinase assay, Carna Biosciences)
Method in brief: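 Baculovirus-expressed, glutathione-purified GST-tagged full-length human PIKFYVE (S696N/L932S/Q995L/T998S/S1033A/Q1183K) reacted with substrate and ATP in 50 mM MOPS, 1 mM DTT, pH 7.2, 1 h at room temperature. ADP formed read by ADP-Glo luminescence.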

[1] = ADP-Glo, full-length human GST-PIKFYVE, 10 μM to 3 nM, read-out: hPIKfyve IC50

full-length human PIKFYVE (N-terminal GST-fusion), sequence (Q9Y2I7 whole entry S696N/L932S/Q995L/T998S/S1033A/Q1183K, the tested form may be a part): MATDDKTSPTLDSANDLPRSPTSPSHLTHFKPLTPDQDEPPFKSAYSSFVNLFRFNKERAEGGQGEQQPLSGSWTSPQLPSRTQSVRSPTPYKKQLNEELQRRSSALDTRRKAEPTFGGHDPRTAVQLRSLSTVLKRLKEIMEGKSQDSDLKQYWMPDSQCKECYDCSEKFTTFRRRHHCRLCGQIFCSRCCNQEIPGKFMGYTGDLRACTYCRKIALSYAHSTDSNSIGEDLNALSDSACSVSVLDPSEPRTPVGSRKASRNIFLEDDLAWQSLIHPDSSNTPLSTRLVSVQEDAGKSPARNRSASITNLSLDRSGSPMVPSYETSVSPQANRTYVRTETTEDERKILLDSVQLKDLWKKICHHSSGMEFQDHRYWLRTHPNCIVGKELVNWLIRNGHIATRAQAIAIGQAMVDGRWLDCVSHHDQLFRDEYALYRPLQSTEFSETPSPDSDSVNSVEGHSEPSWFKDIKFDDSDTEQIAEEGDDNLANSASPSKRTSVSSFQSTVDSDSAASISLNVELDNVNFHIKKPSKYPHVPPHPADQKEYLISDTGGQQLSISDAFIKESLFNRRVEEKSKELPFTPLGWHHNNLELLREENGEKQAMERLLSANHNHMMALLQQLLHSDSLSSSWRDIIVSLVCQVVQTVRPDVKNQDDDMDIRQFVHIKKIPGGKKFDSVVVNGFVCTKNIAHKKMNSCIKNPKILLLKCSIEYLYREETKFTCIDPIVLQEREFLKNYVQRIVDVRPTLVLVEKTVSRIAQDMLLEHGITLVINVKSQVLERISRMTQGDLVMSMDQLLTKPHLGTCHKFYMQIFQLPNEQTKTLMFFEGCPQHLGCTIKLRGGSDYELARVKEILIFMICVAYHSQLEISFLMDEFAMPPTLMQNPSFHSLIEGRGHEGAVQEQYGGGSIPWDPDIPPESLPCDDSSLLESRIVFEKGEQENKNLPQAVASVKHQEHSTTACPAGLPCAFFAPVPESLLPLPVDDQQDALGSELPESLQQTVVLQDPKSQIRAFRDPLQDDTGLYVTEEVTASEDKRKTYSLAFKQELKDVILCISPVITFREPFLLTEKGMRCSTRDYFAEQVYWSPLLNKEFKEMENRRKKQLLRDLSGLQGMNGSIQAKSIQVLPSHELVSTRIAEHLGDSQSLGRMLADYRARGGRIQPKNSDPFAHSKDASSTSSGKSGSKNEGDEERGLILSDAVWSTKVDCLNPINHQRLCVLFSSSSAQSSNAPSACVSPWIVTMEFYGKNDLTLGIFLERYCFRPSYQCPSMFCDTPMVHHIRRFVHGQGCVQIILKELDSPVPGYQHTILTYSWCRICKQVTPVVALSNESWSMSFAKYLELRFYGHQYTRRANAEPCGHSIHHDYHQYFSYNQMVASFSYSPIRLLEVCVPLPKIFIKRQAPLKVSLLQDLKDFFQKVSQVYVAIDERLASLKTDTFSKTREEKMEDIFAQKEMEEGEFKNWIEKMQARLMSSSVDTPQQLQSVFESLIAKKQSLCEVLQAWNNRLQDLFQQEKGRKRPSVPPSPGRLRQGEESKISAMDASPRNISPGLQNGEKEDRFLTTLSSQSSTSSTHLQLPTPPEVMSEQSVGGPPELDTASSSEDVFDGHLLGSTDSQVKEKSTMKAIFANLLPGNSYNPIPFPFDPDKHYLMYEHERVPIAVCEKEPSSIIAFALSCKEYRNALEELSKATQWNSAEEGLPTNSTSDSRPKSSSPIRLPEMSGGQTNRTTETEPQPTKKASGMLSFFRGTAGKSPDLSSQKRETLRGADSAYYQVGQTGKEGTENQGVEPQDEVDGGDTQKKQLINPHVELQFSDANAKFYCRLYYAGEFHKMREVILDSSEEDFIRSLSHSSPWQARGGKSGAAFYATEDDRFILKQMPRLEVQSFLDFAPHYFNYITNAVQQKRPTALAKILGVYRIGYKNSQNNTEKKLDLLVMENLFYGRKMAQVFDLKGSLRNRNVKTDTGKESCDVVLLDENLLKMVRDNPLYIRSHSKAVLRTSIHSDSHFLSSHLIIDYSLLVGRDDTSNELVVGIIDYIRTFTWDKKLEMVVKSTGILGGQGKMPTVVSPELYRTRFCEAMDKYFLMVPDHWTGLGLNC

| IC50 (values plotted in FIG. 7, read-out: PIKFYVE Biochemistry (IC50)) | Compound | IC50 [1] |
| --- | --- | --- |
| – | CN1CCC(N2CCc3c(OCc4cccnc4)nc(N4CCOCC4)nc32)CC1 [Compound 42, 4-(7-(1-methylpiperidin-4-yl)-4-(pyridin-3-ylmethoxy)-6,7-dihydro-5H-pyrrolo[2,3-d]pyrimidin-2-yl)morpholine] | > 10000 nM |
| – | c1cncc(N2CCc3c(N4CCN5CCOCC5C4)nc(N4CCOCC4)nc32)c1 (stereo not drawn) [Compound 79, 8-(2-morpholino-7-(pyridin-3-yl)-6,7-dihydro-5H-pyrrolo[2,3-d]pyrimidin-4-yl)octahydropyrazino[2,1-c][1,4]oxazine] | 1000 to 10000 nM |
| – | c1ccc(N2CCc3cnc(N4CCOCC4)nc32)cc1 [Compound 2, 4-(7-phenyl-6,7-dihydro-5H-pyrrolo[2,3-d]pyrimidin-2-yl)morpholine] | 100 to 1000 nM |
| > 10000 nM | O=c1ccn(Cc2nc(N3CCOCC3)cc(-n3nccc3-c3ccccc3)n2)cc1 | – |
| – | c1cncc(N2CCc3c(-c4ccnnc4)nc(N4CCOCC4)nc32)c1 [Compound 97] | 10 to 100 nM |
| – | c1ccc(-n2cnc3c(-c4ccncc4)nc(N4CCOCC4)nc32)cc1 [Compound 128, 4-(9-phenyl-6-(pyridin-4-yl)-9H-purin-2-yl)morpholine] | 10 to 100 nM |
| – | c1ncc(N2CCc3c(OCC4CCOCC4)nc(N4CCOCC4)nc32)cn1 [Compound 9, 4-(7-(pyrimidin-5-yl)-4-((tetrahydro-2H-pyran-4-yl)methoxy)-6,7-dihydro-5H-pyrrolo[2,3-d]pyrimidin-2-yl)morpholine] | 100 to 1000 nM |
| – | N#Cc1nc(N2CCOCC2)nc2c1CCN2c1ccccc1 [Compound 47, 2-morpholino-7-phenyl-6,7-dihydro-5H-pyrrolo[2,3-d]pyrimidine-4-carbonitrile] | 100 to 1000 nM |
| – | Cc1cccc(/C=N/Nc2nc(N3CCOCC3)nc3c2CCN3c2cccnc2)c1 [Compound 82, (E)-4-(4-(2-(3-methylbenzylidene)hydrazineyl)-7-(pyridin-3-yl)-6,7-dihydro-6H-pyrrolo[2,3-d]pyrimidin-2-yl)morpholine] | < 10 nM |
| – | c1ccc(-n2ncc(N3CCc4c(Oc5cccnc5)nc(N5CCOCC5)nc43)n2)cc1 [Compound 68, 4-(7-(2-phenyl-2H-1,2,3-triazol-4-yl)-4-(pyridin-3-yloxy)-6,7-dihydro-5H-pyrrolo[2,3-d]pyrimidin-2-yl)morpholine] | 1000 to 10000 nM |
| – | c1cncc(N2CCc3c(-c4ccoc4)nc(N4CCOCC4)nc32)c1 [Compound 88, 4-(4-(furan-3-yl)-7-(pyridin-3-yl)-6,7-dihydro-6H-pyrrolo[2,3-d]pyrimidin-2-yl)morpholine] | 10 to 100 nM |
| – | CN1CCC(c2nc(N3CCOCC3)nc3c2CCN3c2ccccc2)C1 (stereo not drawn) [Compound 121, 4-(4-(1-methylpyrrolidin-3-yl)-7-phenyl-6,7-dihydro-H-pyrrolo[2,3-d]pyrimidin-2-yl)morpholine] | 100 to 1000 nM |
| – | CN1CCOC(COc2nc(N3CCOCC3)nc3c2CCN3c2cccnc2)C1 (stereo not drawn) [Compound 12, 4-methyl-2-((2-morpholino-7-(pyridin-3-yl)-6,7-dihydro-5H-pyrrolo[2,3-d]pyrimidin-4-yloxy)methyl)morpholine] | 100 to 1000 nM |
| – | O=C(c1ccccc1)N1CCc2c(Oc3cccnc3)nc(N3CCOCC3)nc21 [Compound 72, (2-morpholino-4-(pyridin-3-yloxy)-6H-pyrrolo[2,3-d]pyrimidin-7(6H)-yl)(phenyl)methanone] | 1000 to 10000 nM |
| – | 4-(4-((oxetan-3-yloxy)methyl)-7-(pyridin-3-yl)-6,7-dihydro-5H-pyrrolo[2,3-d]pyrimidin-2-yl)morpholine [Compound 65] | 1000 to 10000 nM |
| – | c1ccc(N2CCc3c(-c4cncnc4)nc(N4CCOCC4)nc32)cc1 [Compound 100, 4-(7-phenyl-4-(pyrimidin-5-yl)-6,7-dihydro-5H-pyrrolo[2,3-d]pyrimidin-2-yl)morpholine] | 10 to 100 nM |
| – | c1ccc(N2CCc3c(Oc4ccncc4)nc(N4CCOCC4)nc32)cc1 [Compound 54, 4-(7-phenyl-4-(pyridin-4-yloxy)-6,7-dihydro-5H-pyrrolo[2,3-d]pyrimidin-2-yl)morpholine] | 10 to 100 nM |
| – | c1ccc(N2CCc3c(Oc4cccnc4)nc(N4CCOCC4)nc32)cc1 [Compound 53, 4-(7-phenyl-4-(pyridin-3-yloxy)-6,7-dihydro-5H-pyrrolo[2,3-d]pyrimidin-2-yl)morpholine] | 10 to 100 nM |
| – | CC(C)(O)COc1nc(N2CCOCC2)nc2c1CCN2c1cccnc1 [Compound 19, 2-methyl-1-(2-morpholino-7-(pyridin-3-yl)-6,7-dihydro-5H-pyrrolo[2,3-d]pyrimidin-4-yloxy)propan-2-ol] | 100 to 1000 nM |
| – | CN1CCC(COc2nc(N3CCOCC3)nc3c2CCN3c2cccnc2)C1 (stereo not drawn) [Compound 35, 4-(4-((1-methylpyrrolidin-3-yl)methoxy)-7-(pyridin-3-yl)-6,7-dihydro-6H-pyrrolo[2,3-d]pyrimidin-2-yl)morpholine] | 100 to 1000 nM |
| – | c1ccc(-n2ccc(N3CCc4c(Oc5cccnc5)nc(N5CCOCC5)nc43)n2)cc1 [Compound 70, 4-(7-(1-phenyl-1H-pyrazol-3-yl)-4-(pyridin-3-yloxy)-6,7-dihydro-5H-pyrrolo[2,3-d]pyrimidin-2-yl)morpholine] | 1000 to 10000 nM |
| – | CC(=O)N1CCC(c2nc(N3CCOCC3)nc3c2CCN3c2ccccc2)CC1 [Compound 120, 1-(4-(2-morpholino-7-phenyl-6,7-dihydro-5H-pyrrolo[2,3-d]pyrimidin-4-yl)piperidin-1-yl)ethan-1-one] | 10 to 100 nM |
| – | c1ccc(N2CCc3c(OCc4ccccn4)nc(N4CCOCC4)nc32)cc1 [Compound 24, 4-(7-phenyl-4-(pyridin-2-ylmethoxy)-6,7-dihydro-5H-pyrrolo[2,3-d]pyrimidin-2-yl)morpholine] | 10 to 100 nM |
| – | CN1CCn2ncc(-c3c[nH]c4c(-c5ccncc5)nc(N5CCOCC5)nc34)c2C1 [Compound 146, 4-(7-(5-methyl-4,5,6,7-tetrahydropyrazolo[1,5-a]pyrazin-3-yl)-4-(pyridin-4-yl)-5H-pyrrolo[3,2-d]pyrimidin-2-yl)morpholine] | 100 to 1000 nM |
| – | c1cncc(COc2nc(N3CCOCC3)nc3c2CCN3C2CCNCC2)c1 [Compound 6, 4-(7-(piperidin-4-yl)-4-(pyridin-3-ylmethoxy)-6,7-dihydro-5H-pyrrolo[2,3-d]pyrimidin-2-yl)morpholine] | > 10000 nM |
| – | c1cncc(N2CCc3c(OCC4CNC4)nc(N4CCOCC4)nc32)c1 [Compound 38, 4-(4-(azetidin-3-ylmethoxy)-7-(pyridin-3-yl)-6,7-dihydro-5H-pyrrolo[2,3-d]pyrimidin-2-yl)morpholine] | 100 to 1000 nM |
| – | c1ccc(N2CCc3c(C4CCNC4)nc(N4CCOCC4)nc32)cc1 (stereo not drawn) [Compound 116, 4-(7-phenyl-4-(pyrrolidin-3-yl)-6,7-dihydro-5H-pyrrolo[2,3-d]pyrimidin-2-yl)morpholine] | 10 to 100 nM |
| – | CN1CC(COc2nc(N3CCOCC3)nc3c2CCN3c2cccnc2)C1 [Compound 39, 4-(4-((1-methylazetidin-3-yl)methoxy)-7-(pyridin-3-yl)-6,7-dihydro-5H-pyrrolo[2,3-d]pyrimidin-2-yl)morpholine] | 1000 to 10000 nM |
| – | c1cncc(N2CCc3c(OCC4CCOCC4)nc(N4CCOCC4)nc32)c1 [Compound 151, 4-{4-[(oxan-4-yl)methoxy]-7-(pyridin-3-yl)-5H,6H,7H-pyrrolo[2,3-d]pyrimidin-2-yl}morpholine] | 100 to 1000 nM |
| – | COc1nc(N2CCOCC2)nc2c1CCN2c1ccccc1 [Compound 48, 4-(4-methoxy-7-phenyl-6,7-dihydro-5H-pyrrolo[2,3-d]pyrimidin-2-yl)morpholine] | 10 to 100 nM |
